Reference: ChEMBL document CHEMBL5131467, “Multivalent peptide dendrimers inhibit the fusion of viral-cellular membranes and the cellular NF-κB signaling pathway” (Eur J Med Chem, 2022)
Where a SMILES comes first, the peptide text is derived from it. Bridges are numbered along the chain shown (N, C = ends). Roman numbers before positions name the chains, in order. Side-chain parts run from the residue outwards. [ ]: non-standard residue; d: D form. The star is where a group is joined. ξ: configuration not given here. Phenylacetyl(4-Ph) = O=C(Cc1ccc(-c2ccccc2)cc1)*; Fmoc = O=C(OCC1c2ccccc2-c2ccccc21)*; Palmitoyl = CCCCCCCCCCCCCCCC(=O)*; ξW = NC(Cc1c[nH]c2ccccc12)C(=O)O; Lauroyl = CCCCCCCCCCCC(=O)*; Nonanoyl = CCCCCCCCC(=O)*; Octanoyl = CCCCCCCC(=O)*; ξK = NCCCCC(N)C(=O)O

What was measured:
[1] = Cytotoxicity against MDCK cells by CCK-8 assay; assay type: toxicity, cell-based, Canis lupus familiaris; conditions: dog
Influenza A virus [2] = assay: Antiviral activity against Influenza A virus (A/Puerto Rico/8/1934(H1N1)) infected in MDCK cells assessed as reduction in virus induced cytopathic effect pre-treated with virus followed by cell infection for 1 hr by MTT assay; assay type: functional, organism-based
[3] = Cytotoxicity against MDCK cells incubated for 1 hr by MTT assay; assay type: toxicity, cell-based, Canis lupus familiaris; conditions: dog
Influenza A virus [4] = assay: Antiviral activity against Influenza A virus (A/Puerto Rico/8/1934(H1N1)) infected in MDCK cells assessed as reduction in virus induced cytopathic effect after infection incubated for 1 hr by MTT assay; assay type: functional, organism-based
Influenza A virus [5] = assay: Antiviral activity against Influenza A virus (A/Puerto Rico/8/1934(H1N1)) infected in MDCK cells assessed as reduction in virus induced cytopathic effect pretreated with compound incubated for 1 hrs by MTT assay; assay type: functional, organism-based
Influenza A virus [6] = assay: Antiviral activity against Influenza A virus (A/Puerto Rico/8/1934(H1N1)) infected in MDCK cells assessed as reduction in virus induced cytopathic effect during infection incubated for 1 hr by MTT assay; assay type: functional, organism-based
[7] = Selectivity index, ratio of CC50 for MDCK cells to IC50 antiviral activity against Influenza A virus (A/Puerto Rico/8/1934(H1N1)) infected in MDCK cells assessed as reduction in virus induced cytopathic effect pre-treated with virus; assay type: toxicity, cell-based; conditions: dog, read-out: Selectivity Index

| Compound | CC50 [1] | IC50 (Influenza A virus [2]) | CC50 at 1 h [3] | IC50 (Influenza A virus [4]) | IC50 (Influenza A virus [5]) | IC50 (Influenza A virus [6]) | selectivity ratio [7] |
| --- | --- | --- | --- | --- | --- | --- | --- |
| NCCCC[C@H](NC(=O)[C@H](Cc1c[nH]c2ccccc12)NC(=O)[C@H](CCCCN)NC(=O)[C@H](CCCCN)NC(=O)OCC1c2ccccc2-c2ccccc21)C(=O)O (Fmoc-KKWK-OH) | 200000 nM | 4020 nM | > 200000 nM | – | – | – | – |
| NCCCC[C@H](NC(=O)OCC1c2ccccc2-c2ccccc21)C(=O)N[C@@H](Cc1c[nH]c2ccccc12)C(=O)N[C@@H](CCCCN)C(=O)N[C@@H](CCCCN)C(=O)NCCCC[C@H](NC(=O)[C@H](CCCCN)NC(=O)[C@H](CCCCN)NC(=O)[C@H](Cc1c[nH]c2ccccc12)NC(=O)[C@H](CCCCN)NC(=O)OCC1c2ccccc2-c2ccccc21)C(=O)NCCCC[C@H](NC(=O)[C@H](CCCCNC(=O)[C@H](CCCCN)NC(=O)[C@H](CCCCN)NC(=O)[C@H](Cc1c[nH]c2ccccc12)NC(=O)[C@H](CCCCN)NC(=O)OCC1c2ccccc2-c2ccccc21)NC(=O)[C@H](CCCCN)NC(=O)[C@H](CCCCN)NC(=O)[C@H](Cc1c[nH]c2ccccc12)NC(=O)[C@H](CCCCN)NC(=O)OCC1c2ccccc2-c2ccccc21)C(=O)NCC(=O)O (I: Fmoc-KWKKK([Lys-Lys-Trp-Lys-Fmoc])KG-OH / II: Fmoc-KWKKK([Lys-Lys-Trp-Lys-Fmoc]); amide I:6-II:C) | – | 620 nM | 11700 nM | 5000 nM | 470 nM | 1160 nM | 18.8 |
| NCCCC[C@H](NC(=O)[C@H](Cc1c[nH]c2ccccc12)NC(=O)[C@H](CCCCN)NC(=O)[C@@H](N)CCCCN)C(=O)NCCCC[C@H](NC(=O)[C@H](CCCCN)NC(=O)[C@H](Cc1c[nH]c2ccccc12)NC(=O)[C@H](CCCCN)NC(=O)[C@@H](N)CCCCN)C(=O)NCCCC[C@H](NC(=O)[C@H](CCCCNC(=O)[C@H](CCCCN)NC(=O)[C@H](Cc1c[nH]c2ccccc12)NC(=O)[C@H](CCCCN)NC(=O)[C@@H](N)CCCCN)NC(=O)[C@H](CCCCN)NC(=O)[C@H](Cc1c[nH]c2ccccc12)NC(=O)[C@H](CCCCN)NC(=O)[C@@H](N)CCCCN)C(=O)NCC(=O)O (I: H-KKWKK([Lys-Trp-Lys-Lys])KG-OH / II: H-KKWKK([Lys-Trp-Lys-Lys]); amide I:6-II:C) | – | > 5000 nM | 150000 nM | – | > 10000 nM | > 5000 nM | – |
| CCCCCCCCCCCC(=O)N[C@@H](CCCCN)C(=O)N[C@@H](CCCCN)C(=O)N[C@@H](Cc1c[nH]c2ccccc12)C(=O)N[C@@H](CCCCN)C(=O)NCCCC[C@H](NC(=O)[C@H](CCCCN)NC(=O)[C@H](Cc1c[nH]c2ccccc12)NC(=O)[C@H](CCCCN)NC(=O)[C@H](CCCCN)NC(=O)CCCCCCCCCCC)C(=O)NCCCC[C@H](NC(=O)[C@H](CCCCNC(=O)[C@H](CCCCN)NC(=O)[C@H](Cc1c[nH]c2ccccc12)NC(=O)[C@H](CCCCN)NC(=O)[C@H](CCCCN)NC(=O)CCCCCCCCCCC)NC(=O)[C@H](CCCCN)NC(=O)[C@H](Cc1c[nH]c2ccccc12)NC(=O)[C@H](CCCCN)NC(=O)[C@H](CCCCN)NC(=O)CCCCCCCCCCC)C(=O)NCC(=O)O (I: Lauroyl-KKWKK([Lys-Trp-Lys-Lys-Lauroyl])KG-OH / II: Lauroyl-KKWKK([Lys-Trp-Lys-Lys-Lauroyl]); amide I:6-II:C) | – | 280 nM | 5470 nM | > 5000 nM | 310 nM | 430 nM | 19.7 |
| CCCCCCCCCCCC(=O)N[C@@H](CCCCN)C(=O)N[C@@H](Cc1c[nH]c2ccccc12)C(=O)N[C@@H](CCCCN)C(=O)N[C@@H](CCCCN)C(=O)NCCCC[C@H](NC(=O)[C@H](CCCCN)NC(=O)[C@H](CCCCN)NC(=O)[C@H](Cc1c[nH]c2ccccc12)NC(=O)[C@H](CCCCN)NC(=O)CCCCCCCCCCC)C(=O)NCCCC[C@H](NC(=O)[C@H](CCCCNC(=O)[C@H](CCCCN)NC(=O)[C@H](CCCCN)NC(=O)[C@H](Cc1c[nH]c2ccccc12)NC(=O)[C@H](CCCCN)NC(=O)CCCCCCCCCCC)NC(=O)[C@H](CCCCN)NC(=O)[C@H](CCCCN)NC(=O)[C@H](Cc1c[nH]c2ccccc12)NC(=O)[C@H](CCCCN)NC(=O)CCCCCCCCCCC)C(=O)NCC(=O)O (I: Lauroyl-KWKKK([Lys-Lys-Trp-Lys-Lauroyl])KG-OH / II: Lauroyl-KWKKK([Lys-Lys-Trp-Lys-Lauroyl]); amide I:6-II:C) | – | 340 nM | 1880 nM | > 5000 nM | 380 nM | 170 nM | 5.5 |
| CCCCCCCCC(=O)NC(CCCCN)C(=O)NC(Cc1c[nH]c2ccccc12)C(=O)NC(CCCCN)C(=O)NC(CCCCN)C(=O)N[C@@H](CCCCNC(=O)[C@H](CCCCN)NC(=O)[C@H](CCCCN)NC(=O)[C@H](Cc1c[nH]c2ccccc12)NC(=O)[C@H](CCCCN)NC(=O)CCCCCCCC)C(=O)NCCCC[C@H](NC(=O)[C@H](CCCCNC(=O)[C@H](CCCCN)NC(=O)[C@H](CCCCN)NC(=O)[C@H](Cc1c[nH]c2ccccc12)NC(=O)[C@H](CCCCN)NC(=O)CCCCCCCC)NC(=O)[C@H](CCCCN)NC(=O)[C@H](CCCCN)NC(=O)[C@H](Cc1c[nH]c2ccccc12)NC(=O)[C@H](CCCCN)NC(=O)CCCCCCCC)C(=O)NCC(=O)O (stereo partly drawn) (I: Nonanoyl-KWKKK([Lys-Lys-Trp-Lys-Nonanoyl])KG-OH / II: Nonanoyl-[ξK][ξW][ξK][ξK]K([Lys-Lys-Trp-Lys-Nonanoyl]); amide I:6-II:C) | – | 770 nM | 3480 nM | > 5000 nM | 580 nM | 1480 nM | 4.5 |
| CCCCCCCC(=O)N[C@@H](CCCCN)C(=O)N[C@@H](CCCCN)C(=O)N[C@@H](Cc1c[nH]c2ccccc12)C(=O)N[C@@H](CCCCN)C(=O)NCCCC[C@H](NC(=O)[C@H](CCCCN)NC(=O)[C@H](Cc1c[nH]c2ccccc12)NC(=O)[C@H](CCCCN)NC(=O)[C@H](CCCCN)NC(=O)CCCCCCC)C(=O)NCCCC[C@H](NC(=O)[C@H](CCCCNC(=O)[C@H](CCCCN)NC(=O)[C@H](Cc1c[nH]c2ccccc12)NC(=O)[C@H](CCCCN)NC(=O)[C@H](CCCCN)NC(=O)CCCCCCC)NC(=O)[C@H](CCCCN)NC(=O)[C@H](Cc1c[nH]c2ccccc12)NC(=O)[C@H](CCCCN)NC(=O)[C@H](CCCCN)NC(=O)CCCCCCC)C(=O)NCC(=O)O (I: Octanoyl-KKWKK([Lys-Trp-Lys-Lys-Octanoyl])KG-OH / II: Octanoyl-KKWKK([Lys-Trp-Lys-Lys-Octanoyl]); amide I:6-II:C) | – | 570 nM | 8560 nM | > 5000 nM | 420 nM | 640 nM | 15 |
| CCCCCCCCCCCCCCCC(=O)N[C@@H](CCCCN)C(=O)N[C@@H](CCCCN)C(=O)N[C@@H](Cc1c[nH]c2ccccc12)C(=O)N[C@@H](CCCCN)C(=O)NCCCC[C@H](NC(=O)[C@H](CCCCN)NC(=O)[C@H](Cc1c[nH]c2ccccc12)NC(=O)[C@H](CCCCN)NC(=O)[C@H](CCCCN)NC(=O)CCCCCCCCCCCCCCC)C(=O)NCCCC[C@H](NC(=O)[C@H](CCCCNC(=O)[C@H](CCCCN)NC(=O)[C@H](Cc1c[nH]c2ccccc12)NC(=O)[C@H](CCCCN)NC(=O)[C@H](CCCCN)NC(=O)CCCCCCCCCCCCCCC)NC(=O)[C@H](CCCCN)NC(=O)[C@H](Cc1c[nH]c2ccccc12)NC(=O)[C@H](CCCCN)NC(=O)[C@H](CCCCN)NC(=O)CCCCCCCCCCCCCCC)C(=O)NCC(=O)O (I: Palmitoyl-KKWKK([Lys-Trp-Lys-Lys-Palmitoyl])KG-OH / II: Palmitoyl-KKWKK([Lys-Trp-Lys-Lys-Palmitoyl]); amide I:6-II:C) | – | 100 nM | 1580 nM | > 5000 nM | 140 nM | 130 nM | – |
| CCCCCCCCCCCCCCCC(=O)N[C@@H](CCCCN)C(=O)N[C@@H](Cc1c[nH]c2ccccc12)C(=O)N[C@@H](CCCCN)C(=O)N[C@@H](CCCCN)C(=O)NCCCC[C@H](NC(=O)[C@H](CCCCN)NC(=O)[C@H](CCCCN)NC(=O)[C@H](Cc1c[nH]c2ccccc12)NC(=O)[C@H](CCCCN)NC(=O)CCCCCCCCCCCCCCC)C(=O)NCCCC[C@H](NC(=O)[C@H](CCCCNC(=O)[C@H](CCCCN)NC(=O)[C@H](CCCCN)NC(=O)[C@H](Cc1c[nH]c2ccccc12)NC(=O)[C@H](CCCCN)NC(=O)CCCCCCCCCCCCCCC)NC(=O)[C@H](CCCCN)NC(=O)[C@H](CCCCN)NC(=O)[C@H](Cc1c[nH]c2ccccc12)NC(=O)[C@H](CCCCN)NC(=O)CCCCCCCCCCCCCCC)C(=O)NCC(=O)O (I: Palmitoyl-KWKKK([Lys-Lys-Trp-Lys-Palmitoyl])KG-OH / II: Palmitoyl-KWKKK([Lys-Lys-Trp-Lys-Palmitoyl]); amide I:6-II:C) | – | 190 nM | 670 nM | > 5000 nM | 170 nM | 170 nM | – |
| NCCCC[C@H](NC(=O)Cc1ccc(-c2ccccc2)cc1)C(=O)N[C@@H](CCCCN)C(=O)N[C@@H](Cc1c[nH]c2ccccc12)C(=O)N[C@@H](CCCCN)C(=O)NCCCC[C@H](NC(=O)[C@H](CCCCN)NC(=O)[C@H](Cc1c[nH]c2ccccc12)NC(=O)[C@H](CCCCN)NC(=O)[C@H](CCCCN)NC(=O)Cc1ccc(-c2ccccc2)cc1)C(=O)NCCCC[C@H](NC(=O)[C@H](CCCCNC(=O)[C@H](CCCCN)NC(=O)[C@H](Cc1c[nH]c2ccccc12)NC(=O)[C@H](CCCCN)NC(=O)[C@H](CCCCN)NC(=O)Cc1ccc(-c2ccccc2)cc1)NC(=O)[C@H](CCCCN)NC(=O)[C@H](Cc1c[nH]c2ccccc12)NC(=O)[C@H](CCCCN)NC(=O)[C@H](CCCCN)NC(=O)Cc1ccc(-c2ccccc2)cc1)C(=O)NCC(=O)O (I: {Phenylacetyl(4-Ph)}-KKWKK([Lys-Trp-Lys-Lys-Phenylacetyl(4-Ph)])KG-OH / II: {Phenylacetyl(4-Ph)}-KKWKK([Lys-Trp-Lys-Lys-Phenylacetyl(4-Ph)]); amide I:6-II:C) | – | 190 nM | 19300 nM | – | 170 nM | 200 nM | 103 |
